Measurements taken from patent publication US4195022A, “4-Desacetoxy-4α-hydroxyvinblastine and related compounds” (Eli Lilly and Company, priority 1978, dated 1980).
Counter-ions that a name gives are not always drawn.

How the values were obtained:
CA755 adenocarcinoma = assay: anti-tumor activity against transplanted adenocarcinoma 755 (CA755) in mice; format: in vivo; settings: 755, intraperitoneal, 3.0 mg./kg. × 10 days
Procedure: (§1) The compounds of this invention, as represented by Formula II above, are anti-tumor agents. […] For this determination, a protocol was used which involved the administration of the drug by the intraperitoneal route at a given dose level for 7-10 days after innoculation with the tumor or alternatively, on the first, fifth, and ninth days after innoculation.
(§2) The following table--Table 1--give the results of several experiments in which transplanted tumors in mice were treated successfully with a compound of this invention.
(§3) In the table, column 1 gives the name of the compound; column 2, the transplanted tumor; column 3, the dose level or dose level range and the number of days the dosage was administered; and column 4, the percent inhibition of tumor growth or percent prolongation of survival time, e.g., B16. (GLS is an abbreviation for Gardner lymphosarcoma; CA755 is an adenocarcinoma; and B16 is a melanoma.).

B16 melanoma = assay: anti-tumor activity against transplanted B16 melanoma in mice (prolongation of survival time); format: in vivo; settings: B16, intraperitoneal; for toxic: 9.0 mg./kg. × 3 days
Procedure: as §1, §2, §3

[1] = tested on: Gardner lymphosarcoma (GLS); assay: anti-tumor activity against transplanted Gardner lymphosarcoma (GLS) in mice; format: in vivo; settings: intraperitoneal
Procedure: as §1, §2, §3

[2] = tested on: Chinese hamster ovary cells; assay: mitotic inhibition in Chinese hamster ovary cells; format: cell-based
Excerpt: The compounds of this invention are mitotic inhibitors in Chinese hamster ovary cells.

[3] = background statement on known alkaloids; result in words; cited from earlier work

CC[C@]1(O)C[C@@H]2CN(CCc3c([nH]c4ccccc34)[C@@](C(=O)OC)(c3cc4c(cc3OC)N(C)[C@H]3[C@@](O)(C(=O)OC)[C@@H](O)[C@]5(CC)C=CCN6CC[C@]43[C@@H]65)C2)C1 [4-Desacetoxy-4α-hydroxy-vinblastine, 4-Desacetoxy-4α-hydroxyvinblastine]
Percent Inhibition of tumor growth (CA755 adenocarcinoma): 38% | Percent Prolongation of Survival Time (B16 melanoma; 3.0 mg./kg. × 3 days): 65% | Percent Prolongation of Survival Time (B16 melanoma; 6.0 mg./kg. × 3 days): 90% | toxic (B16 melanoma): toxic | Percent Inhibition of tumor growth ([1]; 1.5 mg./kg. × 10 days, day 7): 35% | Percent Inhibition of tumor growth ([1]; 1.5 mg./kg. × 10 days, day 11): 25% | Percent Inhibition of tumor growth ([1]; 3.0 mg./kg. × 10 days, day 7): 91% | Percent Inhibition of tumor growth ([1]; 3.0 mg./kg. × 10 days, day 11): 78% | toxic ([1]; 6.0 mg./kg. × 10 days): toxic | Percent Inhibition of tumor growth ([1]; 6.0 mg./kg. × 10 days, day 7): 100% | minimal effective concentration ([2]; Cricetulus griseus, read-out: mitotic inhibition, activity as low as): 0.01 µg/mL | mitotic inhibition compared with vinblastine sulfate or 4-desacetylvinblastine ([2]; result in words): roughly corresponding to that seen with either vinblastine sulfate or with 4-desacetylvinblastine

CC[C@]1(O)C[C@@H]2CN(CCc3c([nH]c4ccccc34)[C@@](C(=O)OC)(c3cc4c(cc3OC)N(C=O)[C@H]3[C@@](O)(C(=O)OC)[C@@H](O)[C@]5(CC)C=CCN6CC[C@]43[C@@H]65)C2)C1 [4-Desacetoxy-4α-hydroxy-vincristine sulfate]
Percent Inhibition of tumor growth ([1]; 1.5 mg./kg. × 10 days, day 7): 36% | Percent Inhibition of tumor growth ([1]; 1.5 mg./kg. × 10 days, day 11): 29% | Percent Inhibition of tumor growth ([1]; 3.0 mg./kg. × 10 days, day 7): 100% | Percent Inhibition of tumor growth ([1]; 3.0 mg./kg. × 10 days, day 11): 100% | toxic ([1]; 6.0 mg./kg. × 10 days): toxic | Percent Inhibition of tumor growth ([1]; 6.0 mg./kg. × 10 days, day 7): 100%

CC[C@]1(O)C[C@@H]2CN(CCc3c([nH]c4ccccc34)[C@@](C(=O)OC)(c3cc4c(cc3OC)N(C)[C@H]3[C@@](O)(C(=O)NN)[C@@H](O)[C@]5(CC)C=CCN6CC[C@]43[C@@H]65)C2)C1 [4-Desacetoxy-4α-hydroxyvinblastine C-3 carboxhydrazide]
Percent Prolongation of Survival Time (B16 melanoma; 3.0 mg./kg. × 3 days): 67% | Percent Prolongation of Survival Time (B16 melanoma; 6.0 mg./kg. × 3 days): 121% | toxic (B16 melanoma): toxic | Percent Inhibition of tumor growth ([1]; 1.5 mg./kg. × 10 days, day 7): 97% | Percent Inhibition of tumor growth ([1]; 1.5 mg./kg. × 10 days, day 11): 98% | Percent Inhibition of tumor growth ([1]; 3.0 mg./kg. × 10 days, day 7): 100% | Percent Inhibition of tumor growth ([1]; 3.0 mg./kg. × 10 days, day 11): 100% | toxic ([1]; 6.0 mg./kg. × 10 days): toxic

CCC(=O)C[C@@H]1CN(C=O)CCc2c([nH]c3ccccc23)[C@@](C(=O)OC)(c2cc3c(cc2OC)N(C)[C@H]2[C@](O)(C(=O)OC)[C@H](OC(C)=O)[C@]4(CC)C=CCN5CC[C@]32[C@@H]54)C1 [vinamidine]
anti-cancer activity [3]: chemotherapeutically-inactive

leurosine N-oxide [pleurosine]
anti-cancer activity [3]: loss of anti-cancer activity
